Test results published in patent US20250144050A1, “AMINOTHIOL-CONJUGATES, COMPOSITIONS, AND METHODS OF USE THEREOF” (THE BURLINGTON HC RESEARCH GROUP, INC., priority 2021, published 2025).

Assays:
[1] = tested on: Normal human mammary epithelial cells (M99005); assay: Trypan Blue cell count, normal cells, 48 hours; format: cell-based
Method: For comparison purposes, the growth inhibitory does of 4SP65 required to reduce the growth of normal human mammary epithelial cells by 50% was above 300 micromolar. The exact value has not been determined as of yet due to the fact that 4SP65 forms a hydrogel in medium when present at a concentration that exceeds 300 micromolar.
Normal human mammary epithelial cells were grown as described in Example 1, with the exception that the growth medium was as MEBM (purchased from American Type Tissue Culture Collection). When the cells had reach 50 to 60%, the growth medium was removed and medium supplemented with 0 to 300 microM 4SP65 was added to each well containing cells. At 48 hours, the cells were removed by trypsinization stained with Trypan Blue, and counted using a hemocytometer. […] The finding of a biphasic growth inhibition curve for WR-1065 has been reported previously (Calabro-Jones et al. “The limits to radioprotection of Chinese hamster V79 cells by WR-1065 under aerobic conditions.” Radiat Res. 149:550-559 (1998), which is hereby incorporated by reference in its entirety). Additional experiments now have been completed and are described infra).

[2] = tested on: SKOV3 ovarian cancer cells; format: cell-based
Method: (§1) Trypan Blue exclusion was applied as a complementary confirmation probe for cell death.
(§2) Statistical comparisons of differences in individual dose-response metrics between individual/paired drug treatments and various cell lines were conducted using the Student's t-test, with P-values <0.05 considered significant.
(§3) Relative cell growth inhibition values for differing levels each drug alone and in combination were input into SynergyFinder to generated dose-response curves for each drug alone, to produce a dose-response matrix, to visualize the distribution of areas of differing degrees of synergism in a 2-dimension heatmap and 3-dimension volcano plot, and to calculate average and maximum synergy scores in selected human cancer cell lines. […] Synergy scores <10 means that the interaction between two drugs was likely to be antagonistic; scores from −10 to 10 means the interaction between two drugs was likely to be additive; and scores >10 means the interaction between two drugs was likely to be synergistic.

Method for H1975 cells: as §1, §2, §3

Substance: 4-star PEG-S-S-WR1065 [4SP65]
- inhibition of cell growth ([1]; 0 to 300 microM except 100 microM, 48 hours): No inhibition of cell growth was observed
- EC50 ([1]; normal human mammary epithelial cells, read-out: growth inhibitory dose required to reduce growth by 50%): > 300 µM
- CC50 [2]: 9.7 ± 0.5 µM
- GI50 ([2]; SKOV3, each drug alone, 48 h): 4.3 ± 1 µM
- IC50 ([2]; SKOV3, each drug alone, 48 h): 5.2 ± 1 µM
- LC99 ([2]; SKOV3, each drug alone, 48 h): 10.0 ± 0.8 µM
- TGI ([2]; SKOV3, each drug alone, 48 h): 7.3 ± 0.8 µM
- fold more effective as cytostatic agent than PRIMA-1/PRIMA-1met (GI50) ([2]; TP53-null SKOV3 cells): 16 fold
- CC50 (H1975 cells): 7.2 ± 1.4 µM
- GI50 (H1975 cells; H1975, each drug alone, 48 h): 3.2 ± 1.1 µM
- IC50 (H1975 cells; H1975, each drug alone, 48 h): 3.5 ± 0.9 µM
- LC99 (H1975 cells; H1975, each drug alone, 48 h): 8.9 ± 1.6 µM
- TGI (H1975 cells; H1975, each drug alone, 48 h): 5.5 ± 1.4 µM
